Values quoted from earlier work as cited in patent publication US20170136076A1, “THERAPEUTIC COMPOSITIONS COMPRISING HERBAL EXTRACTS AND ESSENTIAL OILS FOR SMOKING AND VAPORIZATION” (NISARGA BIOTECH PRIVATE LIMITED, priority 2015, published 2017).

Key:
[1] = after 90 minutes; condenses on the surface of the vaporizer or the balloon
[2] = pure THC in the vaporizer

SMILES: CCCCCc1cc(O)c2c(c1)OC(C)(C)[C@@H]1CCC(C)=C[C@@H]21 [THC, tetrahydrocannabinol]
- loss of THC from stored vapor [1]: exceed 50%
- degradation products (delta-8-THC, cannabinol, unknown compounds) detected by HPLC [2]: no degradation products
